Measured values reported in ChEMBL document CHEMBL4392866, “Cytotoxic Trichothecene Macrolides Produced by the Endophytic Myrothecium roridum” (J Nat Prod, 2019).

Key:
K562 = experiment: Cytotoxicity against human K562 cells by disk diffusion soft agar colony formation assay; assay type: functional, cell-based
SW 1116 = experiment: Cytotoxicity against human SW1116 cells by disk diffusion soft agar colony formation assay; assay type: functional, cell-based

Row | Structure (SMILES) | IC50 (K562; Homo sapiens, K562) [nM] | IC50 (SW 1116; Homo sapiens, SW 1116) [nM] | IC50 (K562; k562) [nM] | IC50 (SW 1116; sw 1116) [nM]
1 | CC(=O)[C@@]12CC/C=C\C(=O)O[C@@H]3C[C@H]4O[C@@H]5[C@@H]6C[C@@]4(O)[C@@]3(C)[C@]5(CC[C@]6(C)O)COC(=O)/C=C(\CCO1)[C@H]2O | 31600 | 22700 |  | 
2 | CC1=C[C@H]2O[C@@H]3C[C@H]4OC(=O)/C=C\CC[C@@]56OCC/C(=C\C(=O)OC[C@@]2(CC1)[C@]4(C)[C@]31CO1)[C@H]5O[C@@H](O)[C@@H]6O |  |  | 1.1 | 1.5
3 | CC1=C[C@H]2O[C@@H]3C[C@H]4OC(=O)/C=C\CC[C@]5(C(=O)CO)OCC/C(=C\C(=O)OC[C@@]2(CC1)[C@]4(C)[C@]31CO1)[C@H]5O |  |  | 920 | 550
4 | C[C@@H]1CCOC(=O)/C=C/C=C\C(=O)O[C@@H]2C[C@H]3O[C@@H]4C=C(CO)CC[C@]4(COC(=O)[C@H]1O)[C@]2(C)[C@]31CO1 [16-HYDROXY VERRUCARIN A] |  |  | 1.7 | 12
5 | CC1=C[C@H]2O[C@@H]3C[C@H]4OC(=O)/C=C\C=C\C(=O)OCC[C@@H](C)[C@H](O)C(=O)OC[C@@]2(CC1)[C@]4(C)[C@]31CO1 [VERRUCARIN A] |  |  | 3 | 1.8
6 | CC1=C[C@H]2O[C@@H]3C[C@H]4OC(=O)/C=C\CC[C@@]56OCC/C(=C\C(=O)OC[C@@]2(CC1)[C@]4(C)[C@]31CO1)[C@H]5OC(=O)[C@@H]6O |  |  | 56 | 200
7 | CC(=O)O[C@@H]1/C2=C/C(=O)OC[C@@]34CC[C@](C)(O)[C@H]5C[C@]6(O)[C@@H](C[C@@H](OC(=O)/C=C\CC[C@]1(C(C)=O)OCC2)[C@]36C)O[C@H]54 | 1530 | 4250 |  | 
8 | CC(=O)[C@@]12CC/C=C\C(=O)O[C@@H]3C[C@H]4O[C@@H]5C=C(CO)CC[C@]5(COC(=O)/C=C(\CCO1)[C@H]2O)[C@]3(C)[C@]41CO1 |  |  | 2870 | 180
9 | CC1=C[C@H]2O[C@@H]3C[C@H]4OC(=O)/C=C\C=C\[C@H]([C@@H](C)O)OCC/C(C)=C/C(=O)OC[C@@]2(CC1)[C@]4(C)[C@]31CO1 [RORIDIN E] |  |  | 540 | 39
10 | C[C@]12[C@H]3C[C@H]4O[C@@H]5[C@H](C[C@]41O)[C@@](C)(O)CC[C@@]52COC(=O)/C=C1\CCO[C@]2(CC/C=C\C(=O)O3)[C@@H]1O[C@H](O)[C@H]2O | 8200 | 570 |  | 
11 | CC(=O)[C@@]12CC/C=C\C(=O)O[C@@H]3C[C@H]4O[C@@H]5C=C(C)CC[C@]5(COC(=O)/C=C(\CCO1)[C@H]2O)[C@]3(C)[C@]41CO1 |  |  | 1.3 | 1.5
12 | O=c1[nH]cc(F)c(=O)[nH]1 [FLUOROURACIL] | 32900 | 76900 |  | 
13 | CC1=C[C@H]2O[C@@H]3C[C@@H](OC(=O)/C=C\C=C\C(OCCC4=CC(=O)OC4)[C@@H](C)O)[C@](C)([C@@]2(COC(=O)/C=C(\C)CCO)CC1)[C@]31CO1 (stereo partly specified) |  |  | 1.2 | 3.1
14 | C/C1=C\C(=O)OC[C@]23CCC(CO)=C[C@H]2O[C@@H]2C[C@@H](OC(=O)/C=C\C=C\C(=O)OCC1)[C@@]3(C)[C@]21CO1 |  |  | 6.4 | 160
15 | CC1=C[C@H]2O[C@@H]3C[C@H]4OC(=O)/C=C\C=C\[C@@H]([C@@H](C)O)OCC/C(C)=C/C(=O)OC[C@@]2(CC1)[C@]4(C)[C@]31CO1 |  |  | 1 | 33
16 | CC1=C[C@H]2O[C@@H]3C[C@H]4OC(=O)/C=C\CC[C@@]5([C@H](C)O)OCC/C(=C\C(=O)OC[C@@]2(CC1)[C@]4(C)[C@]31CO1)[C@@H]5O |  |  | 510 | 2270
17 | CC1=C[C@H]2O[C@@H]3C[C@H]4OC(=O)/C=C\C=C\[C@H]([C@@H](C)O)OCC[C@@H](C)[C@H](O)C(=O)OC[C@@]2(CC1)[C@]4(C)[C@]31CO1 [RORIDIN A] |  |  | 7.1 | 210
18 | CC(=O)[C@@]12CC/C=C\C(=O)O[C@@H]3C[C@H]4O[C@@H]5[C@@H]6C[C@@]4(O)[C@@]3(C)[C@]5(CC[C@]6(C)O)COC(=O)/C=C(\CCO1)[C@@H]2O | 970 | 10600 |  | 
19 | C[C@]12[C@H]3C[C@H]4O[C@@H]5[C@H](C[C@]41O)[C@@](C)(O)CC[C@@]52COC(=O)/C=C1\CCO[C@@]2(CC/C=C\C(=O)O3)[C@H](O)C(=O)O[C@H]12 | 16000 | 11600 |  | 
20 | C[C@]12[C@H]3C[C@H]4O[C@@H]5[C@H](C[C@]41O)[C@@](C)(O)CC[C@@]52COC(=O)/C=C1\CCO[C@@](C(=O)CO)(CC/C=C\C(=O)O3)[C@@H]1O | 26700 | 23100 |  | 
21 | C[C@]12[C@H]3C[C@H]4O[C@@H]5[C@H](C[C@]41O)[C@@](C)(O)CC[C@@]52COC(=O)/C=C1\CCO[C@]2(CC/C=C\C(=O)O3)[C@@H]1OC(=O)[C@@H]2O | 16000 | 21100 |  | 
22 | CC1=C[C@H]2O[C@@H]3C[C@H]4OC(=O)/C=C\C=C\[C@H]([C@@H](C)O)OCC/C(CO)=C/C(=O)OC[C@@]2(CC1)[C@]4(C)[C@]31CO1 |  |  | 3150 | 7920
23 | C/C1=C\C(=O)OC[C@]23CCC(CO)=C[C@H]2O[C@@H]2C[C@@H](OC(=O)/C=C\C=C\[C@H]([C@@H](C)O)OCC1)[C@@]3(C)[C@]21CO1 |  |  | 7130 | 9060
